Data taken from article PMC5537602, “TRPA1 channel mediates organophosphate-induced delayed neuropathy” (Cell Discovery, 2017).

Experiments:
Assay type in all cases: cell-based
TRPV1 = target: T1, TRPV1 (Homo sapiens, UniProt Q8NER1); assay: Calcium fluorescence signal, HEK293 cells overexpressing TRPV1; conditions: 10 μM
T1 construct: expressed in transfected cells; host or cells: HEK293
Method: (§1) Figure S3. Specificity of malathion for TRPA1 channels. (A-F) Time course of the fluorescence signal induced by malathion (Mala, 10 μM) and the indicated positive agonists (10 μM) in HEK293 cells overexpressing TRPV1 (A), TRPV3 (B), TRPV4 (C), TRPM8 (D), TRPC4 (E) and TRPC5 (F) channels. The fluorescence signals are scaled as F/F0. EC indicates external solution. […]
(§2) cells for each tested TRP channel. All bars are presented as the mean ± SEM. […]

TRPM8 = target: T2, TRPM8 (Homo sapiens, UniProt Q7Z2W7); assay: Calcium fluorescence signal, HEK293 cells overexpressing TRPM8; conditions: 10 μM
T2 construct: expressed in transfected cells; host or cells: HEK293
Method: as §1, §2

TRPC4 = target: T3, TRPC4 (Homo sapiens, UniProt Q9UBN4); assay: Calcium fluorescence signal, HEK293 cells overexpressing TRPC4; conditions: 10 μM
T3 construct: expressed in transfected cells; host or cells: HEK293
T3 sequence (Q9UBN4 1-977): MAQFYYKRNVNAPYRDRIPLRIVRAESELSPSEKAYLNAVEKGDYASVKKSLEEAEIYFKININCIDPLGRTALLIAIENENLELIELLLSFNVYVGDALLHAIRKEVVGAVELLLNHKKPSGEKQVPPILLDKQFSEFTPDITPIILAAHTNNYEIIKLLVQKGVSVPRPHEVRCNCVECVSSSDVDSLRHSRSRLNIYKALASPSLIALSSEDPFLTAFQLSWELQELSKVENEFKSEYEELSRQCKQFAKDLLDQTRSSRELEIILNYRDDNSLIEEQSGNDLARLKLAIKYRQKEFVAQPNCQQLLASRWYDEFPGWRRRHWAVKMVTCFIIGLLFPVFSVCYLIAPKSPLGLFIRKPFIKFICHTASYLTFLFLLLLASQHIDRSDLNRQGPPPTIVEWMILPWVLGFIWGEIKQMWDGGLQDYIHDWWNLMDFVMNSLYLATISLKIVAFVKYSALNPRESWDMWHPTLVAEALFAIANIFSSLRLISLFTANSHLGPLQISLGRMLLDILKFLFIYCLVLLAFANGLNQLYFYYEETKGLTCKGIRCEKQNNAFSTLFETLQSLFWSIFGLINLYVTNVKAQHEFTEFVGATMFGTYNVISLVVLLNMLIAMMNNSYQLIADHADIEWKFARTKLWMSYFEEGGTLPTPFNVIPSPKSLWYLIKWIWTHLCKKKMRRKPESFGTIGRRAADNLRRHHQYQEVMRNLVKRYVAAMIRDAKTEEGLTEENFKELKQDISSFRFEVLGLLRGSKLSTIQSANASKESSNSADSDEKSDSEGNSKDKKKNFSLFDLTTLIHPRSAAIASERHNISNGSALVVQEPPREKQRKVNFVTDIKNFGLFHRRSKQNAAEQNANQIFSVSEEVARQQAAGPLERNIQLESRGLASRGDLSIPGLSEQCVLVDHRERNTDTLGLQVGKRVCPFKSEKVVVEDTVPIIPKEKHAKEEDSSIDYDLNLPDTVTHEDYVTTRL
Method: as §1, §2

TRPC5 = target: T4, TRPC5 (Homo sapiens, UniProt Q9UL62); assay: Calcium fluorescence signal, HEK293 cells overexpressing TRPC5; conditions: 10 μM
T4 construct: expressed in transfected cells; host or cells: HEK293
T4 sequence (Q9UL62 1-973): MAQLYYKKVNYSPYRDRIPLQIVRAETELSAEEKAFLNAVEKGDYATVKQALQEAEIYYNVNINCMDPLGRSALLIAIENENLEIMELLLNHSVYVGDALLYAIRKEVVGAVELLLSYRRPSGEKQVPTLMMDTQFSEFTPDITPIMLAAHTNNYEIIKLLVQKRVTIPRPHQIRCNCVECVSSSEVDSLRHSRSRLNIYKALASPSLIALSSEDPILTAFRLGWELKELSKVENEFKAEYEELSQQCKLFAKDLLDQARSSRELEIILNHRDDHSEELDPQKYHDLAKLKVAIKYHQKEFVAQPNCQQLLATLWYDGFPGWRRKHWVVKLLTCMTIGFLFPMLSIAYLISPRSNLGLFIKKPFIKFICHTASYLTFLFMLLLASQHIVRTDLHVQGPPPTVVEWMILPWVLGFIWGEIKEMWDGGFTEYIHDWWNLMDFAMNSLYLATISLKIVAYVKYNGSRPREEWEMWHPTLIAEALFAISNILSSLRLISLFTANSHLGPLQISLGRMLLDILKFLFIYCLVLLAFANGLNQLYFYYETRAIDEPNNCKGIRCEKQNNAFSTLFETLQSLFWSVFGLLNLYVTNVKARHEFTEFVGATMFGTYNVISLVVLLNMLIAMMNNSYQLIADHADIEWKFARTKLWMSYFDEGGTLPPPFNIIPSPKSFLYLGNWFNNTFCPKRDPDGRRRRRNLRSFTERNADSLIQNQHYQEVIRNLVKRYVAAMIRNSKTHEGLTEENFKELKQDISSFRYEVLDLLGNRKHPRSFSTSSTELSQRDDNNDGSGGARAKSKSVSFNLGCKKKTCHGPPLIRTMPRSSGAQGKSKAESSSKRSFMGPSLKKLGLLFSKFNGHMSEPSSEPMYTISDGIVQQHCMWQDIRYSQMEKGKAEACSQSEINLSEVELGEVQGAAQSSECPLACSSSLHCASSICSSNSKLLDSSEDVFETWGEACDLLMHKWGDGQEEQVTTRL
Method: as §1, §2

mouse DRG neurons = assay: Single-cell calcium imaging (Fura-2/AM) of isolated DRG neurons
Method: DRG neurons were isolated from young C57 BL/6 mice (4–5 weeks). The sections of thoracic and lumbar DRG neurons were rapidly isolated in calcium and magnesium-free PBS with low temperature conditions (ice-bath environment). The isolated tissues were cut into pieces with scissor and incubated for 30 min with 0.1% collagenase and 0.025% trypsin which were diluted by DMEM-F12 at 37 °C. After digestion, neurons were gently dissociated using Pasteur pipettes and then plated onto poly-D-lysine pre-coated glass cover slips. DRG neurons were cultured for 24 h before use.
Calcium influx signals were monitored using the ratio metric fluorescent indicator dye Fura-2/AM at room temperature (23–25 °C). Cells were incubated with 2 μM Fura-2/AM, which was generated by diluting the stock solution with normal external solution, for 30 min at 37 °C. […] The maximum excitation wave length of Fura-2/AM was changed to 340 nm from 380 nm when combined with calcium ions. Fura-2/AM was excited at 340 and 380 nm with a rapid switching monochromator obtained from TILL Photonics, and the mean fluorescence intensity ratios (F340/F380) reflected real-time changes in the concentration of intracellular free calcium ions. The external solution used in the DRG whole-cell patch-clamp recordings was also used for calcium imaging. Solutions were switched using a gravity-fed continuous focal perfusion system.

T2 sequence (Q7Z2W7 whole entry, species assumed): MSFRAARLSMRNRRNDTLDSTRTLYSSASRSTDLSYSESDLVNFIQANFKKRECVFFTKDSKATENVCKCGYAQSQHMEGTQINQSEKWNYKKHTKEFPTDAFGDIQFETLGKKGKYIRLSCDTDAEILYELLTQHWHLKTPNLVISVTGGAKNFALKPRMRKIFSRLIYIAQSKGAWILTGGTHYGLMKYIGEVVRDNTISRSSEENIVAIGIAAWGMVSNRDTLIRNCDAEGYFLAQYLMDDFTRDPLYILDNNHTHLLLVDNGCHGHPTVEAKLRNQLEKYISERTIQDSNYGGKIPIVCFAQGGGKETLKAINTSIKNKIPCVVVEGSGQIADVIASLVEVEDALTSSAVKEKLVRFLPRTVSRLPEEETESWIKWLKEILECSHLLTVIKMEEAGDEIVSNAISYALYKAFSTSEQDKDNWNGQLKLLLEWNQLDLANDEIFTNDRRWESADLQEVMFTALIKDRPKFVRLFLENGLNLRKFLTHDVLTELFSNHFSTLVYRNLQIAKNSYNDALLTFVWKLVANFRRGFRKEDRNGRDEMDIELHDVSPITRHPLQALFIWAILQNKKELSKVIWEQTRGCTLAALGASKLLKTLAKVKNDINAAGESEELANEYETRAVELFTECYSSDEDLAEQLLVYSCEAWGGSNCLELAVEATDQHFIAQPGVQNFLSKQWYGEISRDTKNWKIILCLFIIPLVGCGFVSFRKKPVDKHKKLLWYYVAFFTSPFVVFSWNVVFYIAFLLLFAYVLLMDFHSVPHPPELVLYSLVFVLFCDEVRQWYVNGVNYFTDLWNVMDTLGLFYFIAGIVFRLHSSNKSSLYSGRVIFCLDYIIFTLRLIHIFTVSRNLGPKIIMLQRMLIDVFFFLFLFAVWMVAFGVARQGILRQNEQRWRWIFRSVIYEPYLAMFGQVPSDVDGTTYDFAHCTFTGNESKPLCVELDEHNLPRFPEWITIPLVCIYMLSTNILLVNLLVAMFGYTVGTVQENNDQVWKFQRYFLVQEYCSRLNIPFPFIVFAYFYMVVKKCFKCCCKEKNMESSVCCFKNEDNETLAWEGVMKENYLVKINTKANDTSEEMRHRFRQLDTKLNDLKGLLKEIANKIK
T1 sequence (Q8NER1 whole entry, species assumed): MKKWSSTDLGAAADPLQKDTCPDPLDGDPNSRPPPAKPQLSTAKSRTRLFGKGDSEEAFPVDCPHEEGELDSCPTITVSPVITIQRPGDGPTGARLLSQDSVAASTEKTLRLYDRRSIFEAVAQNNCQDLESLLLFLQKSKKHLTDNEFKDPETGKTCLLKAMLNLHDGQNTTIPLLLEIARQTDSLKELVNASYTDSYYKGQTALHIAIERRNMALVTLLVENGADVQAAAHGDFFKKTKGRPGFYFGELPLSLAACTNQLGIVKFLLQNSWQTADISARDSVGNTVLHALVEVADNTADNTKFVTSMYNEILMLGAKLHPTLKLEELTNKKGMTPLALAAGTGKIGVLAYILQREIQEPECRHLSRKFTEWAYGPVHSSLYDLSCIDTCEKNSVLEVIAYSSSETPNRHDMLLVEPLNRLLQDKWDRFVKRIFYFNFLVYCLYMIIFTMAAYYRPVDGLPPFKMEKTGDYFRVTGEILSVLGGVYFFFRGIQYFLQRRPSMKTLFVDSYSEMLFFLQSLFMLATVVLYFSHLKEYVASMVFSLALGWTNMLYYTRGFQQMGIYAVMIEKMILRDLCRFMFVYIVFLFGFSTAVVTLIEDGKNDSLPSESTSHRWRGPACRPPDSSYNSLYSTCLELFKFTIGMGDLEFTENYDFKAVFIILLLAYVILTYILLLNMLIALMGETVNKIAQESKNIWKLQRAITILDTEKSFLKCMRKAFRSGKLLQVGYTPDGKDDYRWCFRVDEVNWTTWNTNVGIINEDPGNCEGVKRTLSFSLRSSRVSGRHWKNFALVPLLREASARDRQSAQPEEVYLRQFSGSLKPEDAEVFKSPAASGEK

In the case of `CCOC(=O)CC(SP(=S)(OC)OC)C(=O)OCC` (stereo not drawn) [malathion, S-[1,2-bis (ethoxycarbonyl)ethyl] O, O-dimethyl phosphorodithioate], the “activation of TRPV1” value (TRPV1) is reported as “could not activate”, the “activation of TRPM8” value (TRPM8) is reported as “could not activate” and the “activation of TRPC4” value (TRPC4) is reported as “could not activate”. For the same compound, the “activation of TRPC5” value (TRPC5) was “could not activate”, the “[Ca2+]i response of DRG neurons from Trpa1−/− mice” value (mouse DRG neurons; Trpa1−/− neurons) was “thoroughly unresponsive” and the “neurons displaying a robust increase in [Ca2+]i” value (mouse DRG neurons; wild-type small-diameter neurons, sequential application of AITC and malathion, 197/451) was ~ 44%.
